Test system: LTD4 evoked ileal contractions
Test: LTD4 antagonism: inhibition of LTD4 evoked ileal contractions (isolated guinea pig ileum)
Parameters: species or system guinea pig (male, Hartley)
Settings: for -log IC50: 50% inhibition of LTD4 responses, interpolated by linear regression from 2-4 concentrations; for Percent inhibition of LTD4 evoked ileal contractions: isolated ileum, five minute exposure
Procedure: Male, Hartley guinea pigs weighing 200-450 grams were killed by decapitation. A section of terminal ileum was removed, the lumen cleaned, and the tissue divided into 2.5 cm. segments. The ilea were mounted in 10 ml. tissue baths containing Krebs-bicarbonate solution of the following composition in mmoles/liter: KCl, 4.6; CaCl2.2H2 O, 1.2; KH2 PO4, 1.2; MgSO4.7H2 O, 1.2; NaCl, 118.2; NaHCO3, 24.8; and dextrose, 10.0. The bath fluid was maintained at 37° C. and aerated with 95 percent oxygen and 5 percent CO2. In addition, the buffer contained 1×10^-6 M atropine to reduce ileal spontaneous activity. Isometric measurements were made with a Grass FTO3C force-displacement transducer and recorded on a Grass polygraph as change in grams of force. A passive force of 0.5 g. was applied to the tissues. After an appropriate equilibration period, single submaximal control responses to pure LTD4 were obtained. Following a five minute exposure of the ileum to an experimental drug, the control concentration of LTD4 was added to the tissue bath. The response of the ileum to LTD4 in the presence of the drug was compared to the response in the absence of the drug. Various degrees of LTD4 antagonism were obtained using 2-4 different concentrations of an experimental compound on a single ileum.

[1] = compound concentration 1 × 10^-7 M
[2] = compound concentration 1 × 10^-8 M
[3] = compound concentration 3 × 10^-8 M
[4] = compound concentration 3 × 10^-9 M
[5] = compound concentration 3 × 10^-7 M

CCCc1c(COc2ccc(C(O)c3cccc(-c4nnn[nH]4)c3)cc2)ccc(C(C)=O)c1O (stereo not shown) [Example 3, 1-{2-Hydroxy-4-[(4-{hydroxy[3-(1H-tetrazol-5-yl)-phenyl]methyl}phenoxy)methyl]-3-propylphenyl}ethanone]
-log IC50: 7.89 | Percent inhibition of LTD4 evoked ileal contractions [1]: 81% | Percent inhibition of LTD4 evoked ileal contractions [2]: 40% | Percent inhibition of LTD4 evoked ileal contractions [3]: 75%

CCCc1c(COc2ccc(C(=O)c3ccc(-c4nnn[nH]4)cc3)cc2)ccc(C(C)=O)c1O [Example 2, 1-[2-Hydroxy-3-propyl-4-({4-[4-(1H-tetrazol-5-yl)-benzoyl]phenoxy}methyl)phenyl]ethanone]
-log IC50: 8.29 | Percent inhibition of LTD4 evoked ileal contractions [2]: 72% | Percent inhibition of LTD4 evoked ileal contractions [4]: 32%

CCCc1c(COc2ccc(C(=O)c3cccc(-c4nnn[nH]4)c3)cc2)ccc(C(C)=O)c1O [Example 1, 1-[2-Hydroxy-3-propyl-4-({4-[3-(1H-tetrazol-5-yl)benzoyl]phenoxy}methyl)phenyl]ethanone]
-log IC50: 8.58 | Percent inhibition of LTD4 evoked ileal contractions (compound concentration 1 × 10^-9): 21% | Percent inhibition of LTD4 evoked ileal contractions [5]: 98% | Percent inhibition of LTD4 evoked ileal contractions [3]: 80% | Percent inhibition of LTD4 evoked ileal contractions [4]: 53%

CCCc1c(COc2ccc(Oc3ccc(-c4nnn[nH]4)cc3)cc2)ccc(C(C)=O)c1O [Example 4, 1-[2-Hydroxy-3-propyl-4-({4-[4-(1H-tetrazol-5-yl)-phenoxy]phenoxy}methyl)phenyl]ethanone]
-log IC50: 7.08 | Percent inhibition of LTD4 evoked ileal contractions [1]: 53% | Percent inhibition of LTD4 evoked ileal contractions [5]: 80% | Percent inhibition of LTD4 evoked ileal contractions [3]: 25%
